This passage reports IC50 results from patent US5843925A, “Methods for inhibiting angiogenesis, proliferation of endothelial or tumor cells and tumor growth” (American Cyanamid Company, priority 1994, dated 1998).

Usually IC50 stands for the point on the concentration scale where inhibition reaches its midpoint. High values mean a need for much substance, low ones inhibition by little substance.

One test has as its system SW620. As to the kind of experiment: Antiproliferative activity in human tumor cell lines (SW620). The following applies: SW-620, SW620 colon tumor cell line. The class given is cell-based. How it is done: PROTOCOLS 1, 2, and 3 are described in greater detail hereinbelow. In general, according to PROTOCOLS 1 and 2, the target ABAE and/or Human Tumor cells are exposed to the compound of Formula I for 48 hours. PROTOCOL 3 exposes ABAE cells to the compounds for 4 days. A detailed description of the protocol is as follows:
The antiproliferative activity of the compounds of Formula I of the present invention is evaluated in a panel comprised of human tumor cell lines and an adult bovine aortic endothelial cell line (ABAE). The human tumor cell lines are from
All cell lines are maintained in log phase in RPMI 1640 media, supplemented with 5% fetal calf serum, penicillin/streptomycin and 2 mM L-glutamine. Cultures are renewed after 20 passages with cells from a fresh stock of batch-frozen early passage cells. Cell lines are routinely checked for mycoplasma contamination (Genprobe). In a laminar flow hood, cells (1-5×10^4) are plated into 96-well microtiter plates in a volume of 0.1 ml/well with a bulk microtiter dispenser (Denley). […] At this concentration, dimethylsulfoxide has no effect on cell growth. Compounds are added using a Tomtec dispenser which simultaneously dispenses from one 96-well plate, containing the drug dilutions, to the plates containing the cells. After two days of continuous drug exposure, 50% cold trichloroacetic acid (TCA) is added to 10% final concentration to fix the cells, and after 60 minutes at 4° C., the TCA is aspirated and the plates are washed 5 times with deionized water using a microtiter plate washer. The number of cells on the plate are quantitated using a protein dye-binding assay (Monks et al., 1991). A 0.4% solution of the dye, sulforhodamine B, in glacial acetic acid is added to the plates, and the plates are washed 5 times with 1% glacial acetic acid using the automatic plate washed. The bound stain is solubilized with 0.1 ml of 10 mM Tris base. The optical densities are read from an automatic spectrophotometric plate reader (Dynatech) directly to a main frame computer (VAX 8600).
Positive controls, that include standard chemotherapeutic drugs (i.e., adriamycin, cisplatin, etc.), are included in every experiment.
Background optical density measurements (complete media-cells, and complete media+drug-cells) are automatically subtracted from the appropriate control and test wells. Mean values and standard errors are determined from duplicate wells. A measure is also made of the optical density at time when the drugs are added. The number of cells after treatment (P), as % of control, is calculated for every concentration of drug, as follows: [formula] wherein: T is optical density measurement for treated cells after 48 hours;
C is optical density measurement for untreated cells after 48 hours;
Co is optical density measurement for cells at the time of drug addition.
IC50 of growth inhibition is calculated from the sets of P values using the RS-1 data package (BBN Software).
Antiproliferative Activity in Human Tumor Cell Lines
The antiproliferative activity of the compounds of Formula I is evaluated in the panel comprised of human tumor cell lines as listed in PROTOCOL 1. This assay is a slight modification of PROTOCOL 1. The modifications include:
1) each concentration for each compound is tested in a single well;
2) compounds are tested at 20, 4, 0.8, 0.16 microgram/ml and additionally in some experiments at 100 and 0.32 microgram/ml;
3) samples are pipetted into a 96-well plate for each of the cell lines by a Beckman Biomek 1000 SL robot;
4) after fixing with TCA each well is washed with 0.35 ml distilled water twice, not five times;
5) after staining with sulforhodamine B each well is washed 3 times, not five times;
6) the growth inhibition (I) as % of control, is calculated using the RS-1 data package (BBN Software), for every concentration of drug, as follows: [formula] wherein: T is optical density measurement for treated cells after 48 hours; […]

For test [1], the system named is Adult Bovine Aortic Endothelial (ABAE) cell line. Description: Antiproliferative activity in Adult Bovine Aortic Endothelial (ABAE) cell line, PROTOCOL 1. The class given is cell-based. The following applies: Bos taurus; ABAE cells, 48 hours exposure. How it is done:
The antiproliferative activity of the compounds of Formula I in an Adult Bovine Aortic Endothelial (ABAE) cell line and in Human Tumor cells lines is evaluated in three similar assays that measure growth inhibition. The assays are identified as follows: PROTOCOLS 1, 2, and 3 are described in greater detail hereinbelow. In general, according to PROTOCOLS 1 and 2, the target ABAE and/or Human Tumor cells are exposed to the compound of Formula I for 48 hours. PROTOCOL 3 exposes ABAE cells to the compounds for 4 days. A detailed description of the protocol is as follows: The antiproliferative activity of the compounds of Formula I of the present invention is evaluated in a panel comprised of human tumor cell lines and an adult bovine aortic endothelial cell line (ABAE). The human tumor cell lines are from All cell lines are maintained in log phase in RPMI 1640 media, supplemented with 5% fetal calf serum, penicillin/streptomycin and 2 mM L-glutamine. Cultures are renewed after 20 passages with cells from a fresh stock of batch-frozen early passage cells. Cell lines are routinely checked for mycoplasma contamination (Genprobe). […] The number of cells on the plate are quantitated using a protein dye-binding assay (Monks et al., 1991). […] The optical densities are read from an automatic spectrophotometric plate reader (Dynatech) directly to a main frame computer (VAX 8600). […] Mean values and standard errors are determined from duplicate wells. […] The number of cells after treatment (P), as % of control, is calculated for every concentration of drug, as follows: [formula] wherein: T is optical density measurement for treated cells after 48 hours; C is optical density measurement for untreated cells after 48 hours; Co is optical density measurement for cells at the time of drug addition. IC50 of growth inhibition is calculated from the sets of P values using the RS-1 data package (BBN Software). Table 2 presents the results depicting the antiproliferative activity of the compounds of Formula I against an adult bovine aortic endothelial cell line (ABAE), as evaluated by PROTOCOL 1 and PROTOCOL 3. […]

Where a name gives a salt, the structure may show the parent alone.

Turning to `CN(C)CC(=O)Nc1cc(N(C)C)c2c(c1O)C(=O)C1=C(O)[C@]3(O)C(=O)C(C(N)=O)=C(O)[C@@H](N(C)C)C3CC1C2` (stereo partly drawn) [Example 2, [4S-(4a,12aa-1-4,7-Bis(dimethylamino)-9-[[(dimethylamino)acetyl]amino]]-1,4,,4a,5,5a,6,11,12a-octahvdro-3,10,12,12a-tetrahydroxy-1,11-dioxo-2-napththacenecarboxamidedihydrochloride], the IC50 in the test with SW620 came out at 5.6 µg/mL; in test [1] it was 6.6 µg/mL.

With `CCCCCCNCC(=O)Nc1cc(N(C)C)c2c(c1O)C(=O)C1=C(O)[C@]3(O)C(=O)C(C(N)=O)=C(O)[C@@H](N(C)C)C3CC1C2` (stereo partly drawn) [Example 4, [4S-(4α,12aα)]-4,7-Bis(dimethylamino)-9-[(hexylamino)acetyl]amino]-1,4,4a,5,5a,6,11,12a-octahydro-3,10,12,12a-tetrahydroxy-1,11-dioxo-2-naphthacenecarboxamide dihydrochloride], the IC50 worked out at 2.7 µg/mL with SW620 and 2.4 µg/mL in test [1].

On to `CCCCCCCNCC(=O)Nc1cc(N(C)C)c2c(c1O)C(=O)C1=C(O)[C@]3(O)C(=O)C(C(N)=O)=C(O)[C@@H](N(C)C)C3CC1C2` (stereo partly drawn) [Example 5, [4S-(4α,12aα)]-4,7-Bis(dimethylamino)-9-[[(heptylamino)acetyl]amino]-1,4,4a,5,5a,6,11,12a-octahydro-3,10,12,12a-tetrahydroxy-1,11-dioxo-2-naphthacenecarboxamide dihydrochloride], for which the IC50 with SW620 worked out at 2.4 µg/mL; in test [1] it was 2.2 µg/mL.
